Reference: PMC9983021, “Novel GluN2B-Selective NMDA Receptor Negative Allosteric Modulator Possesses Intrinsic Analgesic Properties and Enhances Analgesia of Morphine in a Rodent Tail Flick Pain Model” (ACS Chemical Neuroscience, 2023)
Like-named read-outs stand apart in the source and are kept apart here.

How the values were obtained:
Test in all cases: Radioligand binding assay (NIMH PDSP)
[1] = molecular target: T1, Alpha1A (α1A) (Homo sapiens, UniProt P35348)
T1 sequence (P35348 1-466): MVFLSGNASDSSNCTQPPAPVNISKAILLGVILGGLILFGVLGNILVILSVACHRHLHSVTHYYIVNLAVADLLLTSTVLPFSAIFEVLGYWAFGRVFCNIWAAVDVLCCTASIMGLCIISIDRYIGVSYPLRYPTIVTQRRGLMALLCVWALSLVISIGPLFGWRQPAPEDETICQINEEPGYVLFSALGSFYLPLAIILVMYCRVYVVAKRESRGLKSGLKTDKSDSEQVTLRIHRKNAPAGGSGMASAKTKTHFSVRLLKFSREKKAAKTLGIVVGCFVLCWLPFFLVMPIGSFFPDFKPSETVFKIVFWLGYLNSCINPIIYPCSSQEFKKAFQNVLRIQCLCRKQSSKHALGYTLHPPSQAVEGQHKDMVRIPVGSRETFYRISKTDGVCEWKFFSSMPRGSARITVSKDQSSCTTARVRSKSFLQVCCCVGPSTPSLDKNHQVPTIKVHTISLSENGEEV
Method: (§1) Compound EU93-108 was also tested for inhibition of binding of probes to a range of GPCRs and other targets (Table 4 and Supporting Table S4). […] EU93-108 produced significant displacement of binding probes for the 5-HT2 receptors and α-1-adrenergic receptors, as well as D3, H1, and σ1 receptors. Concentration–response binding competition curves for these targets were used to determine Ki values (Table 4). Given that the brain concentration of EU93-108 achieved 30 min post i.p. injection is 18 μM (Figure 6), the doses that yield our desired antinociceptive effects may engage some of the receptors listed in Table 4.
(§2) Conventional competition and saturation radioligand binding assays were used to determine the affinities of reference standards and EU93-108. Experiments were carried out by the NIMH Psychoactive Drug Screening Program (PDSP) and were performed as previously described.[123]
(§3) The detailed experimental protocols for the radioligand assays are available on the NIMH PDSP website at https://pdsp.unc.edu/pdspweb/content/UNC-CH%20Protocol%20Book.pdf.
(§4) Receptor Mean % Receptor Mean % Receptor Mean %
(§5) Inhibition Inhibition Inhibition
(§6) Supplemental Table S4. Off-Target Actions of EU93-108: Primary GPCR Screen. Cloned human molecular targets were individually expressed and submitted to molecular target-based screening with initial screens performed at a final concentration of 10 µM in quadruplicate. Complete protocols for the assays have been previously published (Besnard J et al. 2012). Where inhibition greater than 50% was measured, secondary screens were performed wherein Ki values were calculated (see Table 4).

[2] = molecular target: T2, Alpha2A (α2A) (Homo sapiens, UniProt P08913)
T2 sequence (P08913 1-465): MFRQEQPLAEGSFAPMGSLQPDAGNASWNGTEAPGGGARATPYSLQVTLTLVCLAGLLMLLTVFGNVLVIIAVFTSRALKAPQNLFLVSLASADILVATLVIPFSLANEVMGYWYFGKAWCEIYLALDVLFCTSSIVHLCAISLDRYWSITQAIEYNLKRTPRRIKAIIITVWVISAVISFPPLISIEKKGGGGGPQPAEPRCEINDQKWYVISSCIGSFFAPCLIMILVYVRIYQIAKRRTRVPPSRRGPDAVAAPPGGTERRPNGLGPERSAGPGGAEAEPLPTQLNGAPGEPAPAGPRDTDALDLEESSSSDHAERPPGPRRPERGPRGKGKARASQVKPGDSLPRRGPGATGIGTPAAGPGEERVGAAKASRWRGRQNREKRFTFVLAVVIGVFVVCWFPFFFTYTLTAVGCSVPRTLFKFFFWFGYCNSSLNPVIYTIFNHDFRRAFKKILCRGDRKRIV
Method: as §1, §2, §3, §4, §5, §6

[3] = molecular target: T3, Alpha2B (α2B) (Homo sapiens, UniProt P18089)
T3 sequence (P18089 1-450): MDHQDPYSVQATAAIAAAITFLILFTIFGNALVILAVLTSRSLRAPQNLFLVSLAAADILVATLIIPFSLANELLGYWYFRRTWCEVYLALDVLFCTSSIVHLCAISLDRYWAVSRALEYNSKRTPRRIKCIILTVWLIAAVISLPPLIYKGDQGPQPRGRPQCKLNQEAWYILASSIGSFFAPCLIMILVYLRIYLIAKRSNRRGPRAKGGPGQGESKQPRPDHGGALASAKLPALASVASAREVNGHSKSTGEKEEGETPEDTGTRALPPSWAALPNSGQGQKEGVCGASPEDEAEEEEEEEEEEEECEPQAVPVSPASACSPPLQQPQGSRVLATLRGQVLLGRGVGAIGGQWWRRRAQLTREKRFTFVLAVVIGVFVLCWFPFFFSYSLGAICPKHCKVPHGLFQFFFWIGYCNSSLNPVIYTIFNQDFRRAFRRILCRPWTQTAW
Method: as §1, §2, §3, §4, §5, §6

[4] = molecular target: T4, Alpha2C (α2C) (Homo sapiens, UniProt P18825)
T4 sequence (P18825 1-462): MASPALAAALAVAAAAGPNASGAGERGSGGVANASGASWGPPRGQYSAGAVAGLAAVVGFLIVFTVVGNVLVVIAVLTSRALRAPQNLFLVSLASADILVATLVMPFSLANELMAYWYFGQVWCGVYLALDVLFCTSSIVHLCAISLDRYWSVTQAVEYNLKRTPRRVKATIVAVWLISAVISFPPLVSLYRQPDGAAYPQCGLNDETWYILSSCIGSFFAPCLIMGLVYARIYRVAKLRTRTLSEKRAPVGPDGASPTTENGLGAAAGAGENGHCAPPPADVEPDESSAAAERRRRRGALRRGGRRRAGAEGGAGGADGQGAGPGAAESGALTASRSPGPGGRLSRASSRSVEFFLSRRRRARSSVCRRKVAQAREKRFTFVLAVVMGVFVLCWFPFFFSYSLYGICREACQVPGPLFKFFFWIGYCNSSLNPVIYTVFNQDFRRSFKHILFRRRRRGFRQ
Method: as §1, §2, §3, §4, §5, §6

[5] = molecular target: D3 (Homo sapiens, UniProt P35462)
Method: as §1, §2, §3, §4, §5, §6

[6] = molecular target: H1 (Homo sapiens, UniProt P35367); settings: for Ki: secondary screen, binding competition curve
Method: as §1, §2, §3, §4, §5, §6

[7] = primary screen, 10 µM, quadruplicate
[8] = ratio of Ki to the IC50 for EU93-108 (555 nM) at GluN2B
[9] = secondary screen, binding competition curve

Chain of H1 (P35367 whole entry): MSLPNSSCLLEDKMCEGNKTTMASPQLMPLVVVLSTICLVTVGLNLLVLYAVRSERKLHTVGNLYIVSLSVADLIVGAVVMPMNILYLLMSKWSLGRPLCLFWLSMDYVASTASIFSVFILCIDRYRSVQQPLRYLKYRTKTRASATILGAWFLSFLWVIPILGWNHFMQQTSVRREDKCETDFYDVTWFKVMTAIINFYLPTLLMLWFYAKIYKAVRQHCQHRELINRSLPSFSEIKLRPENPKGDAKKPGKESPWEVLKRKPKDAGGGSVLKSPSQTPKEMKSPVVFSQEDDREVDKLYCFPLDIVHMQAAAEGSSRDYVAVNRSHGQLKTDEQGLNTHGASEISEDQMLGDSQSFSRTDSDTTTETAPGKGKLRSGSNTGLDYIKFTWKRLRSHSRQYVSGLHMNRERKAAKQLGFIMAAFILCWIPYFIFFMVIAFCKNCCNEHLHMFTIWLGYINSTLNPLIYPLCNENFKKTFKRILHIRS
Chain of D3 (P35462 whole entry): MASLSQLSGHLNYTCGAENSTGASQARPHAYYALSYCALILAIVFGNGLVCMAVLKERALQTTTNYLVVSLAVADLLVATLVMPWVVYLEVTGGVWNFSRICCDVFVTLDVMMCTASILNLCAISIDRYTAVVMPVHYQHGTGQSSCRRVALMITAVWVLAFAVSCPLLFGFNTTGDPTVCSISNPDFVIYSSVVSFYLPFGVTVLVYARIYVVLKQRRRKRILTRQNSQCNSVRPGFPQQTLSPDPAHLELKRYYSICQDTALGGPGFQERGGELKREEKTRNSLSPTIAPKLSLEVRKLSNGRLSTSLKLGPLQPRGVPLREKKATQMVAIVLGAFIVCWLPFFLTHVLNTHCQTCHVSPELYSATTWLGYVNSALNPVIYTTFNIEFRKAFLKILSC

CS(=O)(=O)Nc1ccc(OC[C@@H](O)CN2CCN(c3ccc(F)c(F)c3)CC2)cc1 [EU93-108, (S)-N-(4-(3-(4-(3,4-Difluorophenyl)piperazin-1-yl)-2-hydroxypropoxy)phenyl)methanesulfonamide]
inhibition at 10 µM [1, 7]: 86.3% | Ki/IC50 of EU93-108 [1, 8]: 0.31 | Ki [1, 9]: 170 nM | inhibition at 10 µM [2, 7]: 77.7% | Ki/IC50 of EU93-108 [2, 8]: 2.07 | Ki [2, 9]: 1150 nM | inhibition at 10 µM [3, 7]: 68% | Ki/IC50 of EU93-108 [3, 8]: 1.31 | Ki [3, 9]: 728 nM | inhibition at 10 µM [4, 7]: 63% | Ki/IC50 of EU93-108 [4, 8]: 1.55 | Ki [4, 9]: 862 nM | inhibition at 10 µM [5, 7]: 67.1% | Ki/IC50 of EU93-108 [5, 8]: 0.34 | Ki [5, 9]: 190 nM | inhibition at 10 µM [6, 7]: 76.9% | Ki/IC50 of EU93-108 [6, 8]: 0.46 | Ki ([6]; read-out: Ki): 254 nM | Ki ([6]; read-out: log(Ki) (converted)): 257 nM
